Test results published in EPA's ToxValDB 9.5.

How the values were obtained:
[1] = system: Mus musculus; settings: oral
[2] = system: Rattus norvegicus
[3] = short-term, duration: 14 days, gavage, M, Kunming, CRP in liver tissue + liver: IL-6 levels
[4] = short-term, duration: 15 days, drinking water, F, C57BL/6, IgG antibody titer (SRBC) + IgM antibody titer (SRBC) + spleen: spleen: absolute weight + spleen: spleen: relative weight
[5] = short-term, duration: 15 days, drinking water, F, C57BL/6, IgM antibody titer (DNP)
[6] = short-term, duration: 15 days, drinking water, F, C57BL/6, IgM antibody titer (SRBC) + spleen: spleen: relative weight
[7] = short-term, duration: 15 days, drinking water, F, C57BL/6, spleen: spleen: absolute weight + spleen: spleen: relative weight + thymus: thymus: absolute weight + thymus: thymus: relative weight
[8] = short-term, duration: 15 days, drinking water, F, IgM antibody titer (SRBC)
[9] = short-term, duration: 21 days, drinking water, M, ICR, cytokine mRNA for IL-1 beta in spleen (relative to beta-actin) + expression of c-myc in thymus (relative to beta-actin) + mean body weight…
[10] = short-term, duration: 21 days, drinking water, M, ICR, cytokine mRNA for IL-6 in spleen (relative to beta-actin) + cytokine mRNA for TNF-alpha in spleen (relative to beta-actin) + expression of c…
[11] = short-term, duration: 28 days, gavage, M, BALB/c, testes: TNFa in testes
[12] = short-term, duration: 29 days, gavage, M, Crl:CD-1 (ICR) BR, IgM antibody titer (SRBC) + mean serum corticosterone + spleen: spleen: absolute weight + spleen: total number of splenocytes + thymus: …
[13] = short-term, duration: 29 days, gavage, M, Crl:CD-1 (ICR) BR, spleen: spleen: relative weight
[14] = subchronic, duration: 6 weeks, gavage, M, 129/SV, relative mRNA expression of TNF alpha/GAPDH in liver
[15] = subchronic, duration: 6 weeks, gavage, M, relative mRNA expression of TNF alpha/GAPDH in liver
[16] = acute, duration: 1 days, injection, intraperitoneal, M, Sprague-Dawley, anti-edema effect (reduction in paw edema)
[17] = chronic, duration: 2 years, oral, diet, F, Sprague-Dawley, blood: eosinophils (18 months)
[18] = short-term, duration: 14 days, oral, gavage, M, Crj:CD, red blood cell count
[19] = short-term, duration: 14 days, oral, gavage, M, Crj:CD, white blood cell count
[20] = subchronic, duration: 90 days, oral, diet, M, blood: leukocytes (3 months)
[21] = subchronic, duration: 90 days, oral, diet, M, blood: monocytes (1 month)

O=C([O-])C(F)(F)C(F)(F)C(F)(F)C(F)(F)C(F)(F)C(F)(F)C(F)(F)F.[NH4+] [Ammonium perfluorooctanoate]
NOEL ([1]; short-term, duration: 14 days, gavage, M, Kunming, COX-2 in liver tissue): 2.5 mg/kg-day | LOEL [1, 3]: 10 mg/kg-day | NOEL [1, 3]: 5 mg/kg-day | LOEL ([1]; short-term, duration: 14 days, gavage, M, Kunming, liver: Cox-2 levels + liver: CRP levels + liver: IL-6 levels): 10 mg/kg-day | LOEL ([1]; short-term, duration: 14 days, gavage, M, Kunming, liver: IL-6 levels + liver: TNF-alpha levels): 10 mg/kg-day | LOEL [1, 4]: 25 mg/L | NOEL [1, 4]: 12.5 mg/L | LOEL [1, 5]: 1.88 mg/kg-day | NOEL [1, 5]: 0.94 mg/kg-day | LOEL [1, 6]: 30 mg/kg-day | NOEL [1, 6]: 7.5 mg/kg-day | NOEL ([1]; short-term, duration: 15 days, drinking water, F, C57BL/6, spleen: spleen B220+ cells + spleen: spleen cellularity + spleen: spleen DN (CD4-/CD8-) cells + spleen: spleen DP (CD4+/CD8+) cells): 7.5 mg/kg-day | LOEL ([1]; short-term, duration: 15 days, drinking water, F, C57BL/6, spleen: spleen CD4+ cells + spleen: spleen CD8+ cells + spleen: spleen NK 1.1 cells): 3.75 mg/kg-day | LOEL [1, 7]: 100 mg/L | NOEL [1, 7]: 50 mg/L | NOEL ([1]; short-term, duration: 15 days, drinking water, F, C57BL/6, spleen: spleen: absolute weight + spleen: spleen: relative weight + thymus: thymus: relative weight): 200 mg/L | LOEL ([1]; short-term, duration: 15 days, drinking water, F, C57BL/6, thymus: thymus: relative weight): 7.5 mg/kg-day | LOEL [1, 8]: 30 mg/kg-day | NOEL [1, 8]: 7.5 mg/kg-day | NOEL ([1]; short-term, duration: 15 days, drinking water, F, spleen: spleen: relative weight + thymus: thymus: relative weight): 30 mg/kg-day | NOEL ([1]; short-term, duration: 15 days, gavage, F, C57BL/6, IgG antibody titer (SRBC) + spleen: spleen: absolute weight + spleen: spleen: relative weight + thymus: thymus: absolute weight + thymus: …): 30 mg/kg-day | LOEL ([1]; short-term, duration: 15 days, gavage, F, C57BL/6, IgM antibody titer (SRBC) + spleen: spleen: absolute weight + spleen: spleen: relative weight + thymus: thymus: absolute weight + thymus: …): 30 mg/kg-day | NOEL ([1]; short-term, duration: 16 days, diet, M, C57BL/6, - HRBC IgG1: 160 reciprocal serum dilution + - HRBC IgG1: 320 reciprocal serum dilution + - HRBC IgG1: 40 reciprocal serum dilution + - HRBC…): 0.02% | LOEL ([1]; short-term, duration: 16 days, diet, M, C57BL/6, IgG1 antibody-producing cells (HRBC) + IgG2b antibody-producing cells (HRBC) + IgG3 antibody-producing cells (HRBC) + IgM antibody-producing…): 200 mg/kg-day | LOEL ([1]; short-term, duration: 16 days, diet, M, C57BL/6, IgG1 antibody-secreting cells (HRBC) + IgG1 antibody level (HRBC 1:160) + IgG1 antibody level (HRBC 1:20) + IgG1 antibody level (HRBC 1:80…): 0.02% | LOEL [1, 9]: 17.6 mg/kg-day | NOEL [1, 9]: 2.64 mg/kg-day | LOEL [1, 10]: 47.2 mg/kg-day | NOEL [1, 10]: 17.6 mg/kg-day | NOEL ([1]; short-term, duration: 21 days, drinking water, M, ICR, cytokine mRNA for IL-6 in thymus (relative to beta-actin) + cytokine mRNA for TNF-alpha in thymus (relative to beta-actin) + cytokine mRNA …): 47.2 mg/kg-day | LOEL ([1]; short-term, duration: 21 days, drinking water, M, ICR, spleen: spleen CD8+ cells + spleen: spleen DN (CD4-CD8-) cells + spleen: spleen DP (CD4+CD8+) cells): 0.49 mg/kg-day | LOEL ([1]; short-term, duration: 23 days, gavage, M, Crl:CD-1 (ICR) BR, IgM antibody titer (SRBC) + spleen: spleen: absolute weight + spleen: spleen: relative weight + spleen: total number of splenocytes + thymus…): 30 mg/kg-day | NOEL ([1]; short-term, duration: 23 days, gavage, M, Crl:CD-1 (ICR) BR, mean serum corticosterone + spleen: incidence of spleen hematopoiesis + spleen: spleen: relative weight): 30 mg/kg-day | LOEL [1, 11]: 5 mg/kg-day | NOEL [1, 11]: 1.25 mg/kg-day | LOEL [1, 12]: 10 mg/kg-day | NOEL [1, 12]: 1 mg/kg-day | LOEL [1, 13]: 1 mg/kg-day | NOEL [1, 13]: 0.3 mg/kg-day | LOEL [1, 14]: 5 mg/kg-day | NOEL [1, 14]: 1 mg/kg-day | LOEL [1, 15]: 5 mg/kg-day | NOEL [1, 15]: 1 mg/kg-day | LOEL [2, 16]: 50 mg/kg-day | NOEL [2, 16]: 25 mg/kg-day | NOEL ([2]; acute, duration: 1 days, injection, intraperitoneal, M, Sprague-Dawley, paw thickness (0.5 hr) + paw thickness (1 hr) + paw thickness (time 0)): 150 mg/kg-day | LOEL ([2]; acute, duration: 1 days, injection, intraperitoneal, M, Sprague-Dawley, paw thickness (3 hrs, […] after PFOA) + paw thickness (4 hrs, 2.5 hrs after PFOA)): 150 mg/kg-day | LOEL ([2]; acute, duration: 1 days, injection, intraperitoneal, M, Sprague-Dawley, paw thickness ([…]) + paw thickness (2 hr) + paw thickness (3 hr) + paw thickness (4 hr)): 150 mg/kg-day | NOEL ([2]; acute, duration: 1 days, injection, intraperitoneal, M, Sprague-Dawley, paw thickness ([…], time of PFOA injection) + paw thickness (2 hrs, 0.5 hrs after PFOA)): 150 mg/kg-day | NOEL ([2]; acute, duration: 1 days, injection, intraperitoneal, M, Sprague-Dawley, paw thickness (edema): 0 hr, after carrageenan + paw thickness (edema): 0 hr, before carrageenan + paw thickness (edema): 0.5 hr + paw …): 100 mg/kg-day | LOEL ([2]; acute, duration: 1 days, injection, intraperitoneal, M, Sprague-Dawley, paw thickness (edema): […] + paw thickness (edema): 2 hr + paw thickness (edema): 2.5 hr + paw thickness (edema): 3 hr + paw thickness (…): 100 mg/kg-day | NOEL ([2]; acute, duration: 24 hours, injection, intraperitoneal, M, Fischer 344, blood serum: TNF-alpha levels): 150 mg/kg-day | NOEL ([2]; chronic, duration: 2 years, oral, diet, F, Sprague-Dawley, blood: eosinophils (12 months) + blood: eosinophils (24 months) + blood: eosinophils (3 months) + blood: eosinophils (6 months) + blood: …): 23.4 mg/kg-day | LOEL [2, 17]: 23.4 mg/kg-day | NOEL [2, 17]: 2.34 mg/kg-day | LOEL ([2]; chronic, duration: 2 years, oral, diet, F, Sprague-Dawley, blood: lymphocytes (18 months) + blood: neutrophils (18 months) + spleen: spleen: absolute weight (2 years) + spleen: spleen: relative …): 2.34 mg/kg-day | NOEL ([2]; chronic, duration: 2 years, oral, diet, M, Sprague-Dawley, blood: eosinophils (12 months) + blood: eosinophils (18 months) + blood: eosinophils (24 months) + blood: eosinophils (3 months) + blood: …): 23.4 mg/kg-day | LOEL ([2]; chronic, duration: 2 years, oral, diet, M, Sprague-Dawley, blood: leukocyte count (12 months) + blood: leukocyte count (3 months) + blood: leukocyte count (6 months) + blood: lymphocytes (18 months…): 2.34 mg/kg-day | NOEL ([2]; short-term, duration: 14 days, oral, gavage, M, Crj:CD, blood: NKR-P1A+ + CD3+ + CD4+ + CD45RA+ + CD8a+ + lymphocyte + monocyte + NKR-P1A+ + spleen: spleen: absolute weight + spleen: spleen: …): 50 mg/kg-day | LOEL [2, 18]: 50 mg/kg-day | NOEL [2, 18]: 5 mg/kg-day | LOEL [2, 19]: 5 mg/kg-day | NOEL [2, 19]: 0.5 mg/kg-day | NOEL ([2]; short-term, duration: 24 days, oral, gavage, M, Crl:CD(SD) BR, IgM antibody titer (SRBC) + mean serum corticosterone + spleen: incidence of spleen hematopoiesis + spleen: spleen: absolute weight + spleen…): 30 mg/kg-day | LOEL ([2]; short-term, duration: 24 days, oral, gavage, M, Crl:CD(SD) BR, thymus: thymus: relative weight): 30 mg/kg-day | NOEL ([2]; short-term, duration: 28 days, oral, gavage, F, Sprague-Dawley, basophils + eosinophils + lymphocytes + monocytes + neutrophils + spleen: spleen: absolute weight + spleen: spleen: relative weight + thymus…): 30 mg/kg-day | NOEL ([2]; short-term, duration: 28 days, oral, gavage, F, Sprague-Dawley, basophils + eosinophils + lymphocytes + monocytes + spleen: spleen: absolute weight + spleen: spleen: relative weight + thymus: thymus: …): 30 mg/kg-day | LOEL ([2]; short-term, duration: 28 days, oral, gavage, F, Sprague-Dawley, neutrophils): 30 mg/kg-day | NOEL ([2]; short-term, duration: 28 days, oral, gavage, M, Sprague-Dawley, basophils + eosinophils + lymphocytes + monocytes + neutrophils + spleen: spleen: absolute weight + spleen: spleen: relative weight + thymus…): 30 mg/kg-day | NOEL ([2]; short-term, duration: 28 days, oral, gavage, M, Sprague-Dawley, basophils + eosinophils + lymphocytes + neutrophils + spleen: spleen: absolute weight + spleen: spleen: relative weight + thymus: thymus: …): 30 mg/kg-day | LOEL ([2]; short-term, duration: 28 days, oral, gavage, M, Sprague-Dawley, monocytes + thymus: thymus: absolute weight): 30 mg/kg-day | NOEL ([2]; short-term, duration: 29 days, oral, gavage, M, Crl:CD(SD) BR, IgM antibody titer (SRBC) + mean serum corticosterone + spleen: incidence of spleen hematopoiesis + spleen: spleen: relative weight + spleen…): 30 mg/kg-day | NOEL ([2]; subchronic, duration: 90 days, oral, diet, F, blood: basophils (1 month) + blood: basophils (3 months) + blood: eosinophils (1 month) + blood: eosinophils (3 months) + blood: leukocytes…): 96 mg/kg-day | NOEL ([2]; subchronic, duration: 90 days, oral, diet, M, blood: basophils (1 month) + blood: basophils (3 months) + blood: eosinophils (1 month) + blood: eosinophils (3 months) + blood: leukocytes…): 96 mg/kg-day | LOEL [2, 20]: 28.8 mg/kg-day | NOEL [2, 20]: 9.6 mg/kg-day | LOEL [2, 21]: 2.88 mg/kg-day | NOEL [2, 21]: 0.96 mg/kg-day
